Results as given in patent publication US20230265151A1, “GIP/GLP1 CO-AGONIST COMPOUNDS” (priority 2020, published 2023).
Where two headings read alike, the source gives them in different places.

How the values were obtained:
Assay type in all cases: cell-based
hGIPR = target: T1, hGIPR (Homo sapiens, UniProt P48546); assay: Functional cAMP formation (HTRF) in HEK-293 clonal cells expressing hGIPR, 0.1% bovine casein, without or with 1.0% human serum albumin; details: for EC50: geometric mean, read-out: hGIPR EC50, nM (SEM, n); for Emax: read-out: hGIPR Emax, % ± SEM
T1 construct: expressed in transfected cells
T1 sequence (P48546 22-466): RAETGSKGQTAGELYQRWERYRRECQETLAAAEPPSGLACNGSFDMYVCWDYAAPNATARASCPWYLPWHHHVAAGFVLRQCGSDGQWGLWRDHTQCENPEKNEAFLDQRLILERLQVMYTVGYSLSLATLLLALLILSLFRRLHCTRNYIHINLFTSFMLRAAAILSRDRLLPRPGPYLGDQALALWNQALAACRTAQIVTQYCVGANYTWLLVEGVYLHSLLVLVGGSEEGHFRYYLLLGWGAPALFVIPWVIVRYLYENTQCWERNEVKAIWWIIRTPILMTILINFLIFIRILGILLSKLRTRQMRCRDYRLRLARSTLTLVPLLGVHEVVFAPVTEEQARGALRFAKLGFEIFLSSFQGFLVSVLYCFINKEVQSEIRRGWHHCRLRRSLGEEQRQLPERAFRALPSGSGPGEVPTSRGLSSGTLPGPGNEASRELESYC
Summary of the method: (§1)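 Cells were stimulated with peptide for 30 min at 37° C, then lysed in buffer carrying cAMP-d2 and anti-cAMP Eu3+-cryptate for a competitive HTRF read after at least 60 min at room temperature. The 665/620 nm ratio was converted to nM cAMP against a standard curve.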

hGCGR = target: T2, hGCGR (Homo sapiens, UniProt P47871); assay: Functional cAMP formation (HTRF) in HEK-293 clonal cells expressing hGCGR, 0.1% bovine casein, without or with 1.0% human serum albumin; details: geometric mean, read-out: hGCGR EC50, nM (SEM, n)
T2 construct: expressed in transfected cells
Summary of the method: as §1

hGLP-1R = hGLP-1R (Homo sapiens, UniProt P43220); assay: Functional cAMP formation (HTRF) in HEK-293 clonal cells expressing hGLP-1R, 0.1% bovine casein, without or with 1.0% human serum albumin; parameters: expressed in transfected cells; details: for EC50: geometric mean, read-out: hGLP-1R EC50, nM (SEM, n); for Emax: read-out: hGLP-1R Emax, % ± SEM
Summary of the method: as §1

[1] = 0.1% bovine casein and 1.0% human serum albumin, 37° C.
[2] = HEK293, 0.1% bovine casein and 1.0% human serum albumin, 37° C., percent of maximal response to GIP(1-42)NH2
[3] = HEK293, percent of maximal response to GIP(1-42)NH2, 37° C., 0.1% bovine casein, arithmetic mean
[4] = cAMP, incubated at 37° C., 0.1% bovine casein (no human serum albumin)
[5] = HEK293, 0.1% bovine casein and 1.0% human serum albumin, 37° C., percent of maximal response to GLP-1(7-36)NH2
[6] = HEK293, percent of maximal response to GLP-1(7-36)NH2, 37° C., 0.1% bovine casein, arithmetic mean
[7] = cAMP, 37° C., 0.1% bovine casein (no human serum albumin)

T2 sequence (P47871 26-477): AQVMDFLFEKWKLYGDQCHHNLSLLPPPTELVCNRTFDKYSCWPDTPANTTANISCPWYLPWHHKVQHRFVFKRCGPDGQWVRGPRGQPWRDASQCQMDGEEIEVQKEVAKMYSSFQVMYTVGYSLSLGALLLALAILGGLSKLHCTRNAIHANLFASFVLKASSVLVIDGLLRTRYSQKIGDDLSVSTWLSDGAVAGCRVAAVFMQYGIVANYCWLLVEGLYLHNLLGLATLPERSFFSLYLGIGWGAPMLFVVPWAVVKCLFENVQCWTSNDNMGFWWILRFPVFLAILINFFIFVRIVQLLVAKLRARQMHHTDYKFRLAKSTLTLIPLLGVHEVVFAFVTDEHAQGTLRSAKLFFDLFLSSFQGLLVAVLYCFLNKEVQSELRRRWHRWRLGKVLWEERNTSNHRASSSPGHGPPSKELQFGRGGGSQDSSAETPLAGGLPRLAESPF
Chain of hGLP-1R (P43220 24-463): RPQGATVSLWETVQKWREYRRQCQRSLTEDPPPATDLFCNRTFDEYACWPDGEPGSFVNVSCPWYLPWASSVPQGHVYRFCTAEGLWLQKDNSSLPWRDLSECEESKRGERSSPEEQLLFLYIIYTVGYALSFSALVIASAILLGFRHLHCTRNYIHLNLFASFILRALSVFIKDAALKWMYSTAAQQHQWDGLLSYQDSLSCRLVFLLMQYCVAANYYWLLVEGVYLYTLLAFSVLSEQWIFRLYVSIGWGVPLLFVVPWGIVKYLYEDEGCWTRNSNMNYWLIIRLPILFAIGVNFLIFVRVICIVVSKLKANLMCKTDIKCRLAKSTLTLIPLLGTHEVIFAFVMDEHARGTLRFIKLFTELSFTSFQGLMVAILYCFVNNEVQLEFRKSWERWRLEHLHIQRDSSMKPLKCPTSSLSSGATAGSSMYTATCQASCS

Work on `CC[C@H](C)[C@H](NC(=O)[C@H](CC(C)C)NC(=O)[C@](C)(Cc1ccc(O)cc1)NC(=O)[C@@H](CCC(=O)O)NC(=O)[C@@H](NC(=O)[C@H](Cc1ccccc1)NC(=O)[C@H](CCCCNC(=O)COCCOCCNC(=O)CC[C@H](NC(=O)CCCc1ccc(C(C)(C)C)cc1)C(=O)O)NC(=O)C(C)(C)NC(=O)[C@H](CCC(N)=O)NC(=O)[C@H](C)NC(=O)[C@H](CCCCNC(=O)COCCOCCNC(=O)CC[C@H](NC(=O)CCCc1ccc(C(C)(C)C)cc1)C(=O)O)NC(=O)[C@H](CCCN)NC(=O)[C@H](CC(=O)O)NC(=O)[C@H](CC(C)C)NC(=O)[C@](C)(CC(C)C)NC(=O)[C@@H](NC(=O)[C@H](CO)NC(=O)[C@H](Cc1ccncc1)NC(=O)[C@H](CC(=O)O)NC(=O)[C@H](CO)NC(=O)[C@@H](NC(=O)[C@](C)(Cc1ccccc1F)NC(=O)[C@@H](NC(=O)CNC(=O)[C@H](CCC(=O)O)NC(=O)C(C)(C)NC(=O)[C@@H](N)Cc1ccc(O)cc1)[C@@H](C)O)[C@@H](C)O)[C@@H](C)CC)[C@@H](C)CC)C(=O)N[C@@H](CCC(=O)O)C(=O)NCC(=O)NCC(=O)N1CCC[C@H]1C(=O)N[C@@H](CO)C(=O)N[C@@H](CO)C(=O)NCC(=O)N[C@@H](C)C(=O)N1CCC[C@H]1C(=O)N1CCC[C@H]1C(=O)N1CCC[C@H]1C(=O)N[C@@H](CO)C(N)=O` [Example 207] yielded an EC50 (hGIPR; [1]) of 0.591 nM, an Emax (hGIPR; [2]) of 97.9% and an Emax (hGIPR; [3]) of 96.2%. It also gave an EC50 (hGIPR; [4]) of 0.019 nM, an EC50 (hGCGR; [1]) greater than 9950 nM and an EC50 (hGCGR; [4]) greater than 9950 nM. For the same compound, the EC50 (hGLP-1R; [1]) was 2.98 nM, the Emax (hGLP-1R; [5]) was 112% and the Emax (hGLP-1R; [6]) was 95.1%. For the same compound, the EC50 (hGLP-1R; [4]) was 0.209 nM.

`CC[C@H](C)[C@H](NC(=O)[C@H](CC(C)C)NC(=O)[C@](C)(Cc1ccc(O)cc1)NC(=O)[C@@H](CCC(=O)O)NC(=O)[C@@H](NC(=O)[C@H](Cc1ccccc1)NC(=O)[C@H](CCCCNC(=O)COCCOCCNC(=O)COCCOCCNC(=O)CC[C@H](NC(=O)CCCc1ccc(C(C)(C)C)cc1)C(=O)O)NC(=O)C(C)(C)NC(=O)[C@H](CCC(N)=O)NC(=O)[C@H](C)NC(=O)[C@H](CCCCNC(=O)COCCOCCNC(=O)COCCOCCNC(=O)CC[C@H](NC(=O)CCCc1ccc(C(C)(C)C)cc1)C(=O)O)NC(=O)[C@H](CCCN)NC(=O)[C@H](CC(=O)O)NC(=O)[C@H](CC(C)C)NC(=O)[C@](C)(CC(C)C)NC(=O)[C@@H](NC(=O)[C@H](CO)NC(=O)[C@H](Cc1ccncc1)NC(=O)[C@H](CC(=O)O)NC(=O)[C@H](CO)NC(=O)[C@@H](NC(=O)[C@](C)(Cc1ccccc1F)NC(=O)[C@@H](NC(=O)CNC(=O)[C@H](CCC(=O)O)NC(=O)C(C)(C)NC(=O)[C@@H](N)Cc1ccc(O)cc1)[C@@H](C)O)[C@@H](C)O)[C@@H](C)CC)[C@@H](C)CC)C(=O)N[C@@H](CCC(=O)O)C(=O)NCC(=O)NCC(=O)N1CCC[C@H]1C(=O)N[C@@H](CO)C(=O)N[C@@H](CO)C(=O)NCC(=O)N[C@@H](C)C(=O)N1CCC[C@H]1C(=O)N1CCC[C@H]1C(=O)N1CCC[C@H]1C(=O)N[C@@H](CO)C(N)=O` [Example 131] was tested, and the EC50 (hGIPR; [1]) was 0.0581 nM, the Emax (hGIPR; [2]) was 90.4 ± 1.62% and the Emax (hGIPR; [3]) was 96.4 ± 1.95%. It also gave an EC50 (hGIPR; [4]) of 0.0156 nM, an EC50 (hGCGR; [1]) greater than 9950 nM and an EC50 (hGCGR; [4]) greater than 9950 nM. For the same compound, the EC50 (hGLP-1R; [1]) was 1.04 nM, the Emax (hGLP-1R; [5]) was 112 ± 1.76% and the EC50 (hGLP-1R; [4]) was 0.19 nM.

In the case of `CC[C@H](C)[C@H](NC(=O)[C@H](CCCN)NC(=O)[C@H](CC(=O)O)NC(=O)[C@H](CC(C)C)NC(=O)[C@](C)(CC(C)C)NC(=O)[C@@H](NC(=O)C(C)(C)NC(=O)[C@@H](NC(=O)[C@H](CC(=O)O)NC(=O)[C@H](CO)NC(=O)[C@@H](NC(=O)[C@](C)(Cc1ccccc1F)NC(=O)[C@@H](NC(=O)CNC(=O)[C@H](CCC(=O)O)NC(=O)C(C)(C)NC(=O)[C@@H](N)Cc1ccc(O)cc1)[C@@H](C)O)[C@@H](C)O)C(C)C)[C@@H](C)CC)C(=O)N[C@@H](C)C(=O)N[C@@H](CCC(N)=O)C(=O)NC(C)(C)C(=O)N[C@@H](CCC(=O)O)C(=O)N[C@@H](Cc1ccccc1)C(=O)N[C@H](C(=O)N[C@@H](CCCCNC(=O)COCCOCCNC(=O)COCCOCCNC(=O)CC[C@H](NC(=O)CCCCCCCCCCCCC(=O)O)C(=O)O)C(=O)N[C@@](C)(Cc1ccc(O)cc1)C(=O)N[C@@H](CC(C)C)C(=O)N[C@H](C(=O)N[C@@H](CCCCNC(=O)COCCOCCNC(=O)COCCOCCNC(=O)CC[C@H](NC(=O)CCCCCCCCCCCCC(=O)O)C(=O)O)C(=O)NCC(=O)NCC(=O)N1CCC[C@H]1C(=O)N[C@@H](CO)C(=O)N[C@@H](CO)C(=O)NCC(=O)N[C@@H](C)C(=O)N1CCC[C@H]1C(=O)N1CCC[C@H]1C(=O)N1CCC[C@H]1C(=O)N[C@@H](CO)C(N)=O)[C@@H](C)CC)[C@@H](C)CC` [Example 304], the Emax (hGIPR; HEK293, cAMP, 37° C., 0.1% bovine casein, percent of maximal response to GIP(1-42)NH2, arithmetic mean) is reported as 110%, the EC50 (hGIPR; [7]) is reported as 0.047 nM and the EC50 (hGCGR; [1]) is reported as greater than 9950 nM. For the same compound, the EC50 (hGCGR; [7]) was greater than 9950 nM, the Emax (hGLP-1R; [5]) was 98.3% and the EC50 (hGLP-1R; [7]) was 0.474 nM.

Compound `CC[C@H](C)[C@H](NC(=O)[C@H](CC(C)C)NC(=O)[C@](C)(Cc1ccc(O)cc1)NC(=O)[C@@H](CCC(=O)O)NC(=O)[C@@H](NC(=O)[C@H](Cc1ccccc1)NC(=O)[C@H](CCC(=O)O)NC(=O)C(C)(C)NC(=O)[C@H](CCC(N)=O)NC(=O)[C@H](C)NC(=O)[C@H](CCCCNC(=O)COCCOCCNC(=O)COCCOCCNC(=O)CC[C@H](NC(=O)CCCCCCCCCCCCC(=O)O)C(=O)O)NC(=O)[C@H](CCCN)NC(=O)[C@H](CC(=O)O)NC(=O)[C@H](CC(C)C)NC(=O)[C@](C)(CC(C)C)NC(=O)[C@@H](NC(=O)C1(NC(=O)[C@H](Cc2ccncc2)NC(=O)[C@H](CC(=O)O)NC(=O)[C@H](CO)NC(=O)[C@@H](NC(=O)[C@](C)(Cc2ccccc2F)NC(=O)[C@@H](NC(=O)CNC(=O)[C@H](CCC(=O)O)NC(=O)C(C)(C)NC(=O)[C@@H](N)Cc2ccc(O)cc2)[C@@H](C)O)[C@@H](C)O)CCCC1)[C@@H](C)CC)[C@@H](C)CC)C(=O)N[C@@H](CCC(=O)O)C(=O)NCC(=O)NCC(=O)N[C@@H](CCCCNC(=O)COCCOCCNC(=O)COCCOCCNC(=O)CC[C@H](NC(=O)CCCCCCCCCCCCC(=O)O)C(=O)O)C(=O)N[C@@H](CO)C(=O)N[C@@H](CO)C(=O)NCC(=O)N[C@@H](C)C(=O)N1CCC[C@H]1C(=O)N1CCC[C@H]1C(=O)N1CCC[C@H]1C(=O)N[C@@H](CO)C(N)=O` [Example 211] has an EC50 (hGIPR; [1]) of 2.16 nM, an Emax (hGIPR; [2]) of 64.5% and an Emax (hGIPR; [3]) of 91.6%. For the same compound, the EC50 (hGCGR; [1]) was greater than 9950 nM, the EC50 (hGCGR; [4]) was greater than 9950 nM and the Emax (hGLP-1R; [5]) was 99%. The Emax (hGLP-1R; [6]) was 93.1%.
